This is an account of results in US7803801B2, “Aminopyridine compounds having Syk inhibitory activity” (Japan Tobacco, Inc., priority 2005, dated 2010).

The target in test [1] is GST-Syk Full Protein (human) (Homo sapiens, UniProt P43405). Put plainly: Syk kinase inhibition test (HTRF method). Format: biochemical. Particulars: HTRF, 100 μM ATP, 30 min room temperature, average; read-out: sykHTRF ave IC50. The method in brief: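 Human GST-Syk full-length (6.4 nM) phosphorylated biotin-EDPDYEWPSA-NH2 (250 nM) with 100 μM ATP in HEPES pH 7.0/MgCl2 buffer, 2% DMSO, 30 min at room temperature. EDTA stop, then HTRF detection (streptavidin-XL665, Eu anti-phosphotyrosine) after 1 h; 665/620 ratio read.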
On the technique in general: In TR-FRET formats the signal depends on donor and acceptor labels being close together.

Test [2] concerns cultured human mast cells. Description: Degranulation inhibition test using cultured human mast cells (IgE cross-linking, β-Hexosaminidase release). Format: cell-based. Particulars: Mast cell; cultured human mast cells, anti-hIgE stimulation, β-Hexosaminidase index, average; read-out: human degranulation ave. IC50. How it is done: Degranulation Inhibition Test Using Cultured Human Mast Cells
(1) Separation of Hematopoietic Stem Cells;
After 10 to 60 mL of umbilical cord blood collected with heparin was diluted with an equivalent amount of buffer (0.5% BSA, 2 mM EDTA/PBS-), it was superposed on Ficoll-Paque (Amersham Pharmacia Biotech) (Ficoll/Blood (1:2)) and mononuclear leukocyte fraction was collected by centrifuging it at 400 G (1350 rpm) 4° C. for 30 minutes. After centrifugal washing (1500 rpm, 5 min, 4° C.×3) with buffer, the number of cells was counted and 0.1 mL of CD34 Progenitor Cell Isolation Kit (Miltenyi Biotec), Reagent A1 (Fc blocking) was added for 1×10^8 cells. After agitation, 0.1 mL of Reagent A2 (CD34 antibody-hapten) was added (final volume 0.5 mL/1×10^8 cells) and incubated at 9° C. for further 15 minutes after agitation. After centrifugal washing (1500 rpm, 5 min, 4° C.×3), it was resuspeded in a buffer (0.4 mL) and 0.1 mL of Reagent B (anti hapten antibody-microbeads) was added and agitated (final volume 0.5 mL/1×10^8 cells) and incubated at 9° C. for further 15 minutes. After centrifugal washing (1500 rpm, 5 min, 4° C.×2), it was resuspeded in a buffer (0.5 mL) and loaded on CS column (Miltenyi Biotec) set in MACS (MAgnetic Cell Sorting system; Miltenyi Biotec, Daiichi Pure Chemicals) and washed with 30 mL of buffer to remove CD34^− cells. The column was separated from MACS and eluted with 30 mL of buffer and CD34^+ cells bound to the column were collected and used as a hematopoietic stem cell population.
(2) Acquisition of Human Mast Cells by Long-Term Culturing of Hematopoietic Stem Cells;
The CD34^+ cells separated in (1) were resuspended in Iscove's Modified Dulbecco's Medium (IMDM, Gibco) containing human (rh)SCF (1 μg/mL, Peprotech), rhIL-6 (0.5 μg/mL, Peprotech), rhIL-3 (10 ng/mL, Peprotech), 1% Insulin-Transferrin (Gibco), 5×10^−5M 2-ME (Gibco), 0.1% BSA (Sigma) in a density of 1×10^6 cells/ml and disseminated on 24-well culture plate with a dose of 0.1 mL/well and 0.9 ml of IMDM (Methocult SF^BIT StemCell technology) containing 0.9% methyl cellulose was added and culturing was started. The above culture medium (excluding methyl cellulose) was added in a week and after that 100 μL/well of the above culture medium (further excluding IL-3) was added at an interval of every once a week so that cells were diluted to maintain 10^5 cells/mL/well order and cultured more than about 8 weeks and thereby human culture mast cells were obtained.
(3) Expression Enhancement of FcεRI and Inhibition Test IgE Cross-Linking Stimulating Degranulation;
rhIL-4 (final concentration 1 ng/mL, R & D) and Homo sapiens(h) IgE (final concentration 0.5 μg/mL, CHEMICON) were added to the obtained human culture mast cells, and they were incubated for 5 days to enhance the expression of FcεRI. After incubation, cells were collected and, after centrifugal washing (IMDM), they were disseminated on 96-well culture plate in 5×10^4 cells/80 μL/well.
10 μL of a compound 10-fold diluted with IMDM after dissolved in DMSO (DMSO final concentration 0.1%) was added and reacted at 37° C. for 10 minutes. Further, 10 μL of anti-hIgE Ab (CHEMICON) adjusted to 100 μg/mL (final concentration 10 μg/mL) was added and degranulation was caused by being stimulated at 37° C. for 30 minutes. After centrifugation, 50 μL/well of the supernatant was collected and stored at −40° C. untill the quantity of degranulation was measured. The measurement of quantity of degranulation was performed using enzymatic activity of β-Hexosaminidase contained in the granulates as an index. That is, an equivalent amount of p-nitrophenyl-N-acetyl-β-D-glucosaminide (1 mM) (containing 0.1% Triton X-100) which is a substrate of β-Hexosaminidase was added to 50 μL of the culture filtrate, and after reacted at 37° C. for 2 hours, the reaction was terminated by using 100 μL of Carbonate buffer (0.1M, pH 10). […]

Molecules are shown by their SMILES. Structures can show the parent of a compound that is named as a salt.

`Cc1ccnc(Nc2cccc(-c3cnc(N4CCN(C)C(=O)C4)s3)n2)c1` [Compound A-1, 1-methyl-4-{5-[6-(4-methylpyridin-2-ylamino)pyridin-2-yl]thiazol-2-yl}piperazin-2-one]: the half-inhibitory concentration (IC50) in test [1] and in test [2] was 0.1 to 1 µM throughout.
`Cc1ccnc(Nc2cccc(-c3cnc(N4CCC(C(=O)O)CC4)s3)n2)c1` [Compound A-2, 1-{5-[6-(4-methylpyridin-2-ylamino)pyridin-2-yl]thiazol-2-yl}piperidine-4-carboxylic acid]: the IC50 in test [1] was less than 0.1 µM; in test [2] it was greater than 1 µM.
As to `Cc1ccnc(Nc2cccc(-c3cnc(N4CCC(C(N)=O)CC4)s3)n2)c1` [Compound A-3, 1-{5-[6-(4-methylpyridin-2-ylamino)pyridin-2-yl]thiazol-2-yl}piperidine-4-carboxamide], the figures for the IC50 in test [1] and in test [2] were less than 0.1 µM and 0.1 to 1 µM, respectively.
Regarding `CNC(=O)C1CCN(c2ncc(-c3cccc(Nc4cc(C)ccn4)n3)s2)CC1` [Compound A-4, N-methyl-1-{5-[6-(4-methylpyridin-2-ylamino)pyridin-2-yl]thiazol-2-yl}piperidine-4-carboxamide], the IC50 in test [1] is less than 0.1 µM; in test [2], greater than 1 µM.
Take `Cc1ccnc(Nc2cccc(-c3cnc(N4CCC(C(=O)NCCO)CC4)s3)n2)c1` [Compound A-5, N-(2-hydroxyethyl)-1-{5-[6-(4-methylpyridin-2-ylamino)pyridin-2-yl]thiazol-2-yl}piperidine-4-carboxamide]: the IC50 is less than 0.1 µM in test [1] and 0.1 to 1 µM in test [2].
For the molecule `COC(=O)[C@H]1CC[C@H](c2ncc(-c3cccc(Nc4cc(C)ccn4)n3)s2)CC1` [Compound A-6, trans-4-{5-[6-(4-methylpyridin-2-ylamino)pyridin-2-yl]thiazol-2-yl}cyclohexanecarboxylic acid methyl ester], the IC50 in test [1] and in test [2] was 0.1 to 1 µM each time.
As for `Cc1ccnc(Nc2cccc(-c3cnc([C@H]4CC[C@H](C(=O)O)CC4)s3)n2)c1` [Compound A-7, trans-4-{5-[6-(4-methylpyridin-2-ylamino)pyridin-2-yl]thiazol-2-yl}cyclohexanecarboxylic acid], the half-maximal inhibitory concentration (IC50) in test [1] was less than 0.1 µM; in test [2], greater than 1 µM.
For `Cc1ccnc(Nc2cccc(-c3cnc([C@H]4CC[C@H](C(=O)N5CCC(O)CC5)CC4)s3)n2)c1` [Compound A-8, (4-hydroxypiperidin-1-yl)-(trans-4-{5-[6-(4-methylpyridin-2-ylamino)pyridin-2-yl]thiazol-2-yl}cyclohexyl)methanone], the 50% inhibitory concentration (IC50) in test [1] and in test [2] was 0.1 to 1 µM in each case.
As to `Cc1ccnc(Nc2cccc(-c3cnc([C@H](C)N)s3)n2)c1` [Compound A-9, N—((S)-1-{5-[6-(4-methylpyridin-2-ylamino)pyridin-2-yl]thiazol-2-yl}ethyl)amine], the IC50 in test [1] and in test [2] was 0.1 to 1 µM each time.
`CC(=O)N[C@@H](C)c1ncc(-c2cccc(Nc3cc(C)ccn3)n2)s1` [Compound A-10, N—((S)-1-{5-[6-(4-methylpyridin-2-ylamino)pyridin-2-yl]thiazol-2-yl}ethyl)acetamide]: the IC50 in test [1] and in test [2] was 0.1 to 1 µM in each case.
With `Cc1ccnc(Nc2cccc(-c3cnc([C@@H]4COC(=O)N4C)s3)n2)c1` [Compound A-11], the IC50 in test [1] and in test [2] was 0.1 to 1 µM each time.
With `Cc1ccnc(Nc2cccc(-c3cnc([C@@H]4COC(C)(C)N4C(=O)OC(C)(C)C)s3)n2)c1` [Compound A-12, (S)-2,2-dimethyl-4-{5-[6-(4-methylpyridin-2-ylamino)pyridin-2-yl]thiazol-2-yl}oxazolidine-3-carboxylic acid tert-butyl ester], the IC50 in test [1] and in test [2] was greater than 1 µM in each case.
As for `Cc1ccnc(Nc2cccc(-c3cnc([C@@H](N)CO)s3)n2)c1` [Compound A-13, (S)-2-amino-2-{5-[6-(4-methylpyridin-2-ylamino)pyridin-2-yl]thiazol-2-yl}ethanol], the IC50 in test [1] and in test [2] was 0.1 to 1 µM each time.
Take `Cc1ccnc(Nc2cccc(-c3cnc([C@@H]4COC(=O)N4)s3)n2)c1` [Compound A-14, (S)-4-{5-[6-(4-methylpyridin-2-ylamino)pyridin-2-yl]thiazol-2-yl}oxazolidin-2-one]: the half-maximal inhibitory concentration (IC50) in test [1] is less than 0.1 µM; in test [2], 0.1 to 1 µM.
For `Cc1ccnc(Nc2cccc(-c3cnc(N4CCC(CC(=O)O)CC4)s3)n2)c1` [Compound A-15, (1-{5-[6-(4-methylpyridin-2-ylamino)pyridin-2-yl]thiazol-2-yl}piperidin-4-yl)acetic acid dihydrochloride], the half-inhibitory concentration (IC50) in test [1] was less than 0.1 µM; in test [2], 0.1 to 1 µM.
Take `Cc1ccnc(Nc2cccc(-c3cnc(N(C)C[C@H]4CC[C@H](C(=O)O)CC4)s3)n2)c1` [Compound A-16, trans-4-[(N-methyl-N-{5-[6-(4-methylpyridin-2-ylamino)pyridin-2-yl]thiazol-2-yl}amino)methyl]cyclohexanecarboxylic acid]: the half-maximal inhibitory concentration (IC50) is less than 0.1 µM in test [1] and 0.1 to 1 µM in test [2].
Turning to `Cc1ccnc(Nc2cccc(-c3cnc(N4CCC(CCC(=O)O)CC4)s3)n2)c1` [Compound A-17, 3-(1-{5-[6-(4-methyl-pyridin-2-ylamino)pyridin-2-yl]thiazol-2-yl}piperidin-4-yl)propionic acid], the IC50 is less than 0.1 µM in test [1] and 0.1 to 1 µM in test [2].
For `CCC(=O)Nc1nc(C)c(-c2cccc(Nc3cc(C)ccn3)n2)s1` [Compound A-19, N-{4-methyl-5-[6-(4-methylpyridin-2-ylamino)pyridin-2-yl]thiazol-2-yl}propionamide], in that order: less than 0.1 µM and 0.1 to 1 µM.
With `CC(=O)Nc1nc(C)c(-c2cccc(Nc3cc(C)ccn3)n2)s1` [Compound A-20, N-{4-methyl-5-[6-(4-methylpyridin-2-ylamino)pyridin-2-yl]thiazol-2-yl}acetamide], the IC50 in test [1] was less than 0.1 µM; in test [2] it was 0.1 to 1 µM.
Take `CC(=O)Nc1nc(C)c(-c2cncc(Nc3cc(C)ccn3)n2)s1` [Compound A-21, N-{4-methyl-5-[6-(4-methylpyridin-2-ylamino)pyrazin-2-yl]thiazol-2-yl}acetamide]: the IC50 in test [1] is less than 0.1 µM; in test [2] it was 0.1 to 1 µM.
On to `COc1cc(Nc2cccc(-c3sc(NC(C)=O)nc3C)n2)ncn1` [Compound A-22], for which the IC50 in test [1] is 0.1 to 1 µM; in test [2], greater than 1 µM.
Consider `CC(=O)Nc1ncc(-c2cccc(Nc3cc(C)ccn3)n2)s1` [Compound A-23], for which the IC50 in test [2] lay within 0.1 to 1 µM.
`Cc1ccnc(Nc2cccc(-c3cncs3)n2)c1` [Compound A-24]: the IC50 in test [1] is 0.1 to 1 µM; in test [2], greater than 1 µM.
As to `CC(=O)O[C@@H](C)c1ncc(-c2cccc(Nc3cc(C)ccn3)n2)s1` [Compound A-25, acetic acid(S)-1-{5-[6-(4-methylpyridin-2-ylamino)pyridin-2-yl]thiazol-2-yl}ethyl ester], the IC50 is less than 0.1 µM in test [1] and 0.1 to 1 µM in test [2].

The IC50 is the concentration needed to halve the response being measured.
